A value given as a limit tells only on which side of the number the result lay.

The test has as its target T1, HIV-integrase (Human immunodeficiency virus type 1 group M subtype B, UniProt P12497).
T1 construct: Recombinant integrase (0.26 ng) was incubated with the beads
Description: HIV-Integrase Inhibition Activity (SPA bead integration assay with P33 labeled target DNA). The test is classed as biochemical. Conditions: recombinant integrase, class symbols; read-out: in vitro activity. The procedure, abridged: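 Biotinylated substrate DNA on streptavidin SPA beads loaded with recombinant integrase (90 min, 37° C), washed, then inhibitor plus 0.1 fmol P33-labeled target DNA added. Reaction stopped with 10 mM EDTA; integration measured as CPM by scintillation, giving IC50 ranks.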
For the compound `CNC(=O)C(=O)NC12CCC(CC1)Cn1c2nc(C(=O)NCc2ccc(F)cc2)c(O)c1=O` [Example 61, N-(2-((4-Fluorobenzyl)carbamoyl)-3-hydroxy-4-oxo-6,7,8,9-tetrahydro-7,10-ethanopyrimido[1,2-a]azepin-10(4H)-yl)-N′-methylethanediamide], the IC50 was < 10 nM.

Consider `O=C(NC12CCC(CC1)Cn1c2nc(C(=O)NCc2ccc(F)cc2)c(O)c1=O)C(=O)N1CCCC1` [Example 58, N-(4-Fluorobenzyl)-3-hydroxy-4-oxo-10-((oxo(1-pyrrolidinyl)acetyl)amino)-4,6,7,8,9,10-hexahydro-7,10-ethanopyrimido[1,2-a]azepine-2-carboxamide], for which the IC50 is < 10 nM.

For `O=C(NC12CCC(Cn3c1nc(C(=O)NCc1ccc(F)c(Cl)c1)c(O)c3=O)C2)OCc1ccccc1` (stereo not shown) [Example 194, Carbamic acid, [2-[[[(3-chloro-4-fluorophenyl)methyl]amino]carbonyl]-6,7,8,9-tetrahydro-3-hydroxy-4-oxo-7,10-methanopyrimido[1,2-a]azepin-10(4H)-yl]-, phenylmethyl ester], the IC50 is < 10 nM.

As for `O=C(NC12CCC(CC1)Cn1c2nc(C(=O)NCc2ccc(F)cc2)c(O)c1=O)OCCO` [Example 260, Carbamic acid, [2-[[[(4-fluorophenyl)methyl]amino]carbonyl]-6,7,8,9-tetrahydro-3-hydroxy-4-oxo-7,10-ethanopyrimido[1,2-a]azepin-10(4H)-yl]-, 2-hydroxyethyl ester], the IC50 was < 10 nM.

For `Cc1cc(CNC(=O)c2nc3n(c(=O)c2O)CC2CCC3(NC(=O)[C@@H]3CCN3S(C)(=O)=O)CC2)ccc1F` [Example 276, 7,10-Ethanopyrimido[1,2-a]azepine-2-carboxamide, N-[(4-fluoro-3-methylphenyl)methyl]-4,6,7,8,9,10-hexahydro-3-hydroxy-10-[[[(2S)-1-(methylsulfonyl)-2-azetidinyl]carbonyl]amino]-4-oxo-], the IC50 is < 10 nM.

For `CN(C)C(=O)C(=O)NC12CCC(CC1)Cn1c2nc(C(=O)NCc2cccc(-n3cncn3)c2)c(O)c1=O` [Example 125, N′-(3-Hydroxy-4-oxo-2-((3-(1H-1,2,4-triazol-1-yl)benzyl)carbamoyl)-6,7,8,9-tetrahydro-7,10-ethanopyrimido[1,2-a]azepin-10(4H)-yl)-N,N-dimethylethanediamide], the IC50 was < 10 nM.

For `CN1CCC[C@H]1C(=O)NC12CCC(CC1)Cn1c2nc(C(=O)NCc2ccc(F)cc2)c(O)c1=O` [Example 258, 7,10-Ethanopyrimido[1,2-a]azepine-2-carboxamide, N-[(4-fluorophenyl)methyl]-4,6,7,8,9,10-hexahydro-3-hydroxy-10-[[[(2S)-1-methyl-2-pyrrolidinyl]carbonyl]amino]-4-oxo-], the IC50 was 10 to 100 nM.

`COC(=O)N1CCCC1C(=O)NC12CCC(CC1)Cn1c2nc(C(=O)NCc2ccc(F)cc2)c(O)c1=O` (stereo not shown) [Example 406]: the IC50 was < 10 nM.

Take `O=C(NC12CCC(CC1)Cn1c2nc(C(=O)NCc2ccc(F)cc2)c(O)c1=O)NS(=O)(=O)c1ccccc1` [Example 330, 7,10-Ethanopyrimido[1,2-a]azepine-2-carboxamide, N-[(4-fluorophenyl)methyl]-4,6,7,8,9,10-hexahydro-3-hydroxy-4-oxo-10-[[[(phenylsulfonyl)amino]carbonyl]amino]-]: the IC50 was < 10 nM.

On to `O=C(CN1CCCC1=O)NC12CCC(CC1)Cn1c2nc(C(=O)NCc2ccc(F)cc2)c(O)c1=O` [Example 43, N-(4-Fluorobenzyl)-3-hydroxy-4-oxo-10-(((2-oxo-1-pyrrolidinyl)acetyl)amino)-4,6,7,8,9,10-hexahydro-7,10-ethanopyrimido[1,2-a]azepine-2-carboxamide], for which the IC50 is < 10 nM.

Turning to `O=C(NCc1ccc(F)cc1)c1nc2n(c(=O)c1O)CC1CCC2(NC(=O)[C@H]2CCCN2)CC1` [Example 252, 7,10-Ethanopyrimido[1,2-a]azepine-2-carboxamide, N-[(4-fluorophenyl)methyl]-4,6,7,8,9,10-hexahydro-3-hydroxy-4-oxo-10-[[(2R)-2-pyrrolidinylcarbonyl]amino]-], the IC50 is 10 to 100 nM.

Turning to `O=C(NC12CCC(CC1)Cn1c2nc(C(=O)NCc2ccc(F)cc2)c(O)c1=O)C(=O)N1CCN(CCO)CC1` [Example 72, N-(4-Fluorobenzyl)-3-hydroxy-10-(((4-(2-hydroxyethyl)-1-piperazinyl)(oxo)acetyl)amino)-4-oxo-4,6,7,8,9,10-hexahydro-7,10-ethanopyrimido[1,2-a]azepine-2-carboxamide], the IC50 was < 10 nM.

For the compound `COC(=O)NC12CCC(CC1)Cn1c2nc(C(=O)NCc2ccc(F)cc2)c(O)c1=O` [Example 25, Methyl (2-((4-fluorobenzyl)carbamoyl)-3-hydroxy-4-oxo-6,7,8,9-tetrahydro-7,10-ethanopyrimido[1,2-a]azepin-10(4H)-yl)carbamate], the IC50 was < 10 nM.

As to `CN(C)C(=O)C(=O)N[C@H]1c2nc(C(=O)NCc3ccc(F)cc3)c(O)c(=O)n2C[C@H]2CC[C@]1(C)C2(C)C` [Example 183, N′-((7S,10R,11R)-2-((4-Fluorobenzyl)carbamoyl)-3-hydroxy-10,12,12-trimethyl-4-oxo-6,7,8,9,10,11-hexahydro-4H-7,10-methanopyrimido[1,2-a]azocin-11-yl)-N,N-dimethylethanediamide], the IC50 fell in the range of 10 to 100 nM.

Turning to `CC(=O)N1CCC[C@H]1C(=O)NC12CCC(CC1)Cn1c2nc(C(=O)NCc2ccc(F)c(C)c2)c(O)c1=O` [Example 262, 7,10-Ethanopyrimido[1,2-a]azepine-2-carboxamide, 10-[[[(2S)-1-acetyl-2-pyrrolidinyl]carbonyl]amino]-N-[(4-fluoro-3-methylphenyl)methyl]-4,6,7,8,9,10-hexahydro-3-hydroxy-4-oxo-], the IC50 was < 10 nM.

Consider `CN(C)C(=O)C(=O)NC12CCC(CC1)Cn1c2nc(C(=O)NCc2ccc(Cl)cc2Cl)c(O)c1=O` [Example 368], for which the IC50 was < 10 nM.

In the case of `CC(=O)N[C@@H]1CCN(C(=O)C(=O)NC23CCC(CC2)Cn2c3nc(C(=O)NCc3ccc(F)cc3)c(O)c2=O)C1` [Example 86, 10-((((3R)-3-(Dcetylamino)-1-pyrrolidinyl)(oxo)acetyl)amino)-N-(4-fluorobenzyl)-3-hydroxy-4-oxo-4,6,7,8,9,10-hexahydro-7,10-ethanopyrimido[1,2-a]azepine-2-carboxamide], the IC50 was < 10 nM.

Regarding `Cc1cc(CNC(=O)c2nc3n(c(=O)c2O)CC2CCC3(NS(=O)(=O)c3cn(C)c(=O)n(C)c3=O)CC2)ccc1F` [Example 293, 7,10-Ethanopyrimido[1,2-a]azepine-2-carboxamide, N-[(4-fluoro-3-methylphenyl)methyl]-4,6,7,8,9,10-hexahydro-3-hydroxy-4-oxo-10-[[(1,2,3,4-tetrahydro-1,3-dimethyl-2,4-dioxo-5-pyrimidinyl)sulfonyl]amino]-], the IC50 is < 10 nM.

Take `Cc1cc(CNC(=O)c2nc3n(c(=O)c2O)CC2CCC3(NC(=O)C3(c4ccccn4)CC3)CC2)ccc1F` [Example 304, 7,10-Ethanopyrimido[1,2-a]azepine-2-carboxamide, N-[(4-fluoro-3-methylphenyl)methyl]-4,6,7,8,9,10-hexahydro-3-hydroxy-4-oxo-10-[[[1-(2-pyridinyl)cyclopropyl]carbonyl]amino]-]: the IC50 was < 10 nM.

These data come from US8129398B2 (priority 2008, dated 2012).
